Here are results for 93 molecules from PubChem BioAssay AID1902 (Broad Institute, 2009).

The target in the assay is S. pyogenes SKKanGAS, kanamycin survival, BacTiterGlo, 6 h. Nature of the assay: SKKanGAS survival reduction under kanamycin, dose response, streptokinase promoter inhibitor project, SKKanGAS strain, luminescence, dose confirmation (AID 1902).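 Note: lower survival reflects blocked streptokinase promoter driving kanamycin resistance gene.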

The source made the active and inactive calls.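 Rule for the calls: active = EC50 no more than a set limit of log units above the highest dose; inactive = the rest.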 Where only a bound is given, the exact number is not on record here.

In the case of `Cc1cc(SCC(=O)N/N=C/c2ccc(O)cc2O)c(C)cc1Br`, the EC50 was 1.93 µM.

Take `COc1cccc(NCc2cc(=O)oc3cc(C)c(O)cc23)c1`: the EC50 is 1.85 µM.

Take `CCOC(=O)N1CCN(C(=O)c2ccc3c(=O)n(CCC4=CCCCC4)c(=S)[nH]c3c2)CC1`: the EC50 is 7.74 µM.

For the molecule `O=c1cc2oc3cc(O)c(O)cc3c(-c3ccccc3[N+](=O)[O-])c-2cc1O`, the EC50 was 9.36 µM.

With `CCCCCC(=O)Cc1cc(O)cc2c1C(=O)Oc1cc(O)c(C(=O)O)c(CCCCC)c1O2`, the EC50 was 6.67 µM.

As to `Cc1ccccc1N1CCN(C(=O)CCN2C(=O)c3ccccc3C2=O)CC1`, the EC50 was > 15 µM (inactive).

`COc1ccc(C(=O)Nc2sc(C)c(-c3ccccc3)c2C#N)cc1OC`: the EC50 was 13.3 µM.

For `COc1ccccc1OCC(=O)Nc1c2c(nn1-c1ccc(F)cc1)CS(=O)(=O)C2`, the EC50 is > 15 µM (inactive).

With `CC1=NN(c2ccccc2)C(=O)/C1=C/c1c(O)n(-c2ccc(F)c(Cl)c2)[nH]c1=O`, the EC50 was 3.61 µM.

For `CCOC(=O)c1cnn(-c2nc(-c3ccccc3F)cs2)c1C(F)(F)F`, the EC50 was 10.9 µM.

As to `CCN1/C(=C\C=C\C2=[N+](CC)c3ccccc3C2(C)C)C(C)(C)c2ccccc21`, the EC50 is 7.34 µM.

`Cc1cccnc1Nc1nc(-c2ccccn2)cs1`: the EC50 was 0.705 µM.

Take `O=C(N/N=C/c1sc2ccccc2c1O)c1ccccc1`: the EC50 was 0.929 µM.

`O=C(N[C@H](CO)[C@H](O)c1ccc([N+](=O)[O-])cc1)C(Cl)Cl`: the EC50 was 0.973 µM.

Take `Nc1nc(Nc2ccccc2)nc(NC2CCCCC2)c1[N+](=O)[O-]`: the EC50 was 5.57 µM.

For the molecule `CC1(C)OC(C(O)(c2ccccc2)c2ccccc2)[C@@H](C(O)(c2ccccc2)c2ccccc2)O1` (stereo partly drawn), the EC50 was 3.36 µM.

With `Cc1onc(-c2ccccc2)c1C(=O)NNC(=S)NC(=O)c1ccc(Cl)cc1Cl`, the EC50 is 0.615 µM.

Consider `CCCC(=O)NC(c1ccco1)c1cc(Cl)c2cccnc2c1O` (stereo not drawn), for which the EC50 is 1.5 µM.

As to `CCCC(=O)NC(c1ccc(Cl)cc1)c1ccc2cccnc2c1O` (stereo not drawn), the EC50 was 7.2 µM.

For `COCCNC(=O)c1c(NC(=O)c2ccco2)n(Cc2ccccc2)c2nc3ccccc3nc12`, the EC50 is 8.51 µM.

For the molecule `Cc1ccc(C)c(S(=O)(=O)N2CCN(Cc3ccc(O)c4ncccc34)CC2)c1`, the EC50 was 2.8 µM.

Take `Nc1c(Cl)cc(-c2csc(N3CCCC3c3nc4cc(Cl)c(Cl)cc4n3CCOCCO)n2)cc1Cl` (stereo not drawn): the EC50 was > 15 µM (inactive).

Regarding `COc1ccc(C2CC(=O)c3cnc(N4CCN(Cc5ccccc5)CC4)nc3C2)cc1` (stereo not drawn), the EC50 was 13.7 µM.

Turning to `COc1ccc(S(=O)(=O)N[C@@H](C)C(=O)OCC(=O)Nc2cc3oc4ccccc4c3cc2OC)cc1`, the EC50 was 1.42 µM.

Turning to `CCOC(=O)c1c(-c2ccc(OC)cc2)csc1/N=C/C1=C(O)CCCC1=O`, the EC50 is 14.5 µM.

On to `Fc1cc(F)c(C2SCCN2C(=S)Nc2cccc(C(F)(F)F)c2)c(F)c1` (stereo not drawn), for which the EC50 was 8.26 µM.

Regarding `CCCCCCC(=O)N/N=C/c1c(O)n(CCCC)c(=S)[nH]c1=O`, the EC50 was 2.12 µM.

Turning to `CC(=O)c1ccc(N2CCC(c3cc(-c4ccc(Cl)cc4Cl)n[nH]3)CC2)c([N+](=O)[O-])c1`, the EC50 was 2.15 µM.

For the molecule `Oc1c(N=NC(=S)Nc2ccccc2F)c2ccccc2n1Cc1cccc(Cl)c1`, the EC50 was 0.658 µM.

As for `Oc1c(Cl)cc(Cl)c2cccnc12`, the EC50 is 0.148 µM.

Consider `Cc1ccsc1C(=O)OCC(=O)c1cc2ccccc2o1`, for which the EC50 is > 15 µM (inactive).

For `Oc1ccc(Oc2ccc(Oc3ccc(O)cc3)cc2)cc1`, the EC50 was 5.25 µM.

On to `O=c1c2ccccc2sn1-c1ccccc1`, for which the EC50 was 1.11 µM.

Regarding `CC(C)C(=O)NC(c1cccs1)c1cc([N+](=O)[O-])c2cccnc2c1O` (stereo not drawn), the EC50 is 1.45 µM.

In the case of `FC(F)(F)c1cc(-c2ccccc2)nc(N2CCCCCC2)n1`, the EC50 is 3.93 µM.

In the case of `COc1ccccc1N1CC(C(=O)Nc2nnc(SCC(=O)NCC3CCCO3)s2)CC1=O` (stereo not drawn), the EC50 was > 15 µM (inactive).

For `COc1ccc2[nH]c3c(C)c4ccncc4c(C)c3c2c1`, the EC50 was 1.87 µM.

On to `Cc1cccc(C(=O)NC(=S)NNC(=O)c2ccc(Cl)cc2)c1`, for which the EC50 is 0.187 µM.

Turning to `Oc1c(C(Nc2cccc(C(F)(F)F)c2)c2cccnc2)ccc2cccnc12` (stereo not drawn), the EC50 was 1.53 µM.

For `CC1CC(C)CN(c2ncc3c(n2)CC(c2ccccc2Cl)CC3=O)C1` (stereo not drawn), the EC50 is 4.33 µM.

Regarding `COc1cccc(N=Nc2c(N)[nH]n3c(=O)cc(-c4ccccc4)nc23)c1`, the EC50 was 1.79 µM.

Take `CC(C)(C)c1cc(NCc2ccccn2)n2ncc(-c3ccccc3)c2n1`: the EC50 is 0.171 µM.

Consider `CCOc1c(OC(C)=O)ccc(/C=C/c2ccc3cccc(OC(C)=O)c3n2)c1[N+](=O)[O-]`, for which the EC50 was 1.6 µM.

For `Cc1ccc(/C=C/C(=O)c2ccc([N+](=O)[O-])o2)cc1`, the EC50 was 5.27 µM.

As for `Cc1cc(Br)cc(/C=N/NC(=O)c2ccc3c(c2)OCO3)c1O`, the EC50 was 1.9 µM.

As to `CCC1C(=NO)C(CC)C(c2ccccc2)NC1c1ccccc1` (stereo not drawn), the EC50 is 3.34 µM.

For the molecule `O=C(CN1c2ccccc2Sc2ccccc21)NNC(=O)Nc1cccc(Cl)c1`, the half-maximal effective concentration (EC50) is 4.97 µM.

Consider `CCOc1cc(/C=C\[N+](=O)[O-])ccc1OCC(=O)Nc1ccccc1C`, for which the EC50 was 9.44 µM.

Regarding `Cc1ccc(-c2cc(C(F)F)nc(N3CCC(C)CC3)n2)cc1`, the EC50 was 5.48 µM.

As to `CC(=O)Oc1ccc(-c2nc(-c3cccnc3)no2)cc1`, the EC50 was 4.93 µM.

With `COc1ccccc1NS(=O)(=O)c1cc(NC(=S)NCC2CCCO2)ccc1C` (stereo not drawn), the EC50 was > 15 µM (inactive).

`CCCc1cc(C(=O)Nc2ccc(C(=O)c3ccc(F)cc3)cc2)n(C)n1`: the EC50 is > 15 µM (inactive).

In the case of `O=C(N/N=C/c1cc2c3c(c1O)CCCN3CCC2)c1ccccc1O`, the EC50 is 7.14 µM.

As for `C[C@H]1[C@H](C)CC[C@]2(C(=O)O)CC[C@]3(C)C(=CC[C@@H]4[C@@]5(C)CC[C@H](O)C(C)(C)[C@@H]5CC[C@]43C)[C@H]12`, the EC50 is 1.79 µM.

Regarding `COc1ccc(C2CC(c3cccs3)=NN2C(=O)c2ccc(Br)o2)cc1` (stereo not drawn), the EC50 is 5.63 µM.

For `O=C(NCc1ccc2c(c1)OCO2)C(=O)NCC1OCCN1S(=O)(=O)c1ccc(Br)cc1` (stereo not drawn), the EC50 was > 15 µM (inactive).

For the molecule `Cc1[nH]n(-c2ccccc2)c(=O)c1N=Nc1ccccc1O`, the concentration giving a half-maximal response (EC50) is 0.582 µM.

On to `COc1ccc(-c2oc(NC(=O)CSc3ncn[nH]3)c(C#N)c2-c2ccc(OC)cc2)cc1`, for which the EC50 is 3.61 µM.

On to `c1ccc(-c2nc(C3CCCCC3)c3ccccc3n2)cc1`, for which the EC50 is 3.87 µM.

On to `COc1ccc(Cn2c(-c3ccco3)nc3oc4cc(OC)ccc4c(=O)c3c2=O)cc1`, for which the EC50 is 14.7 µM.

In the case of `CCN(CCn1cccn1)C(=O)CC1C(=O)NCCN1CCc1ccccc1` (stereo not drawn), the EC50 is > 15 µM (inactive).

For `CCC(CC)c1nnc(NC(=O)c2ccc3ccccc3n2)s1`, the EC50 is 0.72 µM.

As for `COc1cccc(/C=N/Nc2cc(N3CCOCC3)ncn2)c1O`, the EC50 was 7.64 µM.

As for `COc1ccc(Cn2c(C3CCCCC3)nc3c(c(=O)c4ccccc4n3C)c2=O)cc1`, the EC50 was 3.2 µM.

Consider `Cc1[nH][nH]c(=O)c1C(c1c(C)[nH][nH]c1=O)c1cn(Cc2ccc(Cl)c(Cl)c2)c2ccccc12`, for which the EC50 was 3.07 µM.

`O=C(NNC(=O)c1ccccc1OCc1ccccc1Cl)c1csc(N2CCOCC2)n1`: the EC50 was 5.04 µM.

As for `COc1cc(OC)cc(C(=O)Nc2nc(CC(=O)NCc3ccccc3OC)cs2)c1`, the EC50 was 12.4 µM.

Consider `O=C(Cc1ccc(Br)cc1)Nc1nc2ccccc2[nH]1`, for which the EC50 is 4.55 µM.

Turning to `CCN(CC)CCN(C(=O)CCS(=O)(=O)c1ccccc1)c1nc2cc(C)cc(C)c2s1`, the EC50 was > 15 µM (inactive).

With `O=C(NNC1=Nc2ccccc2SC1)c1ccc(F)cc1`, the EC50 was 6.87 µM.

`O=C(NC(=S)NNC(=O)c1ccccc1O)c1ccco1`: the EC50 was 3.06 µM.

Consider `O=[N+]([O-])c1ccc(/C=N/Nc2nc(-c3ccccc3)c3cc(Br)ccc3n2)o1`, for which the EC50 was 0.466 µM.

For the molecule `Cc1ccc(-c2nn(-c3ccccc3)cc2/C=N/n2c(-c3cccs3)n[nH]c2=S)cc1`, the EC50 was 1.95 µM.

For the molecule `Oc1c(N=NC(=S)Nc2ccccc2F)c2ccccc2n1Cc1ccc(F)cc1`, the EC50 was 0.892 µM.

In the case of `COc1ccc(/C=C/C(=O)NC(=S)NNC(=O)c2cc(OC)c(OC)c(OC)c2)cc1`, the EC50 is 1.08 µM.

Take `O=[N+]([O-])c1ccc(/C=N/NC(=S)Nc2ccc(Cl)cc2Cl)s1`: the EC50 was 1.75 µM.

As to `Cc1nnc(SCC2=C(C(=O)O)N3C(=O)C(NC(=O)Cn4nc(C)c(Cl)c4C)C3SC2)s1` (stereo not drawn), the EC50 was less than 0.06 µM.

As for `O=[N+]([O-])c1ccc(/C=N/Nc2nc(N3CCCCCC3)nc(N3CCCCCC3)n2)o1`, the EC50 is 0.618 µM.

Regarding `CCCN(CC1CC1)c1nc(C)nc(Nc2c(Cl)cc(Cl)cc2Cl)c1Cl`, the EC50 was 1.26 µM.

`O=c1c2cc(N3CCOCC3)ccc2[nH]c(=S)n1CCc1ccccc1`: the EC50 is 0.482 µM.

As for `COc1ccc(-c2nc(NC(C)=O)sc2-c2ccc(OC)cc2)cc1`, the EC50 is 4.05 µM.

With `CSc1cccc(-c2nnc(NC(=O)c3cccc(N4C(=O)CCC4=O)c3)o2)c1`, the EC50 was 2.04 µM.

In the case of `CCOc1ccc2nc(N3C(=O)/C(=C/c4ccc(Cl)cc4)NC3=S)sc2c1`, the EC50 is 1.3 µM.

Regarding `CCOc1ccccc1NC(=O)c1nc(S(=O)(=O)Cc2cccc(C)c2)ncc1Cl`, the EC50 is 11.1 µM.

For the molecule `C/C(=N\Nc1ccc(C(=O)O)cc1)c1ccc2c(c1)Nc1ccccc1S2`, the EC50 was 2.45 µM.

As for `CCC(=O)Nc1ccc(Nc2nc(C)c([N+](=O)[O-])c(Nc3ccc(NC(=O)CC)cc3)n2)cc1`, the EC50 was 1.56 µM.

In the case of `O=C(N/N=C/c1c[nH]c2ccccc12)c1[nH]c2ccc(Br)cc2c1-c1ccccc1`, the EC50 is 2.17 µM.

As for `C[C@H]1c2cccc(O)c2C(O)=C2C(=O)[C@]3(O)C(O)=C(C(N)=O)C(=O)[C@@H](N(C)C)C3[C@@H](O)C21` (stereo partly drawn), the EC50 was less than 0.06 µM.

`COc1ccc(C(=O)NNC(=S)NC(=O)c2ccc(F)cc2)cc1Br`: the EC50 was 0.127 µM.

As to `CCC1(C)Cc2c(sc3nc(SC)[nH]c(=S)c23)CO1` (stereo not drawn), the EC50 was 1.87 µM.

On to `CCc1nc(N)nc(N)c1-c1ccc(Cl)cc1`, for which the concentration for a half-maximal effect (EC50) was 3.99 µM.

For `COc1ccc(OC)c(/C=C/c2ccc3cccc(O)c3n2)c1`, the concentration for a half-maximal effect (EC50) was 0.197 µM.

Take `O=C(COc1cccc(Oc2ccccc2)c1)Nc1ccc(SC(F)F)cc1`: the EC50 was 13 µM.

For orientation: EC50 means the concentration needed to bring the measured effect to its halfway point.
